Results taken from patent publication EP4660185A1, “NAV1.7- AND/OR NAV1.8-INHIBITING AMIDES, PROCESSES FOR THE PREPARATION THEREOF, COMPOSITIONS, USES, METHODS FOR TREATMENT USING SAME, AND KITS” (Eurofarma Laboratórios S.A., priority 2023, dated 2024).

Tests used:
[1] = target: T1, human sodium channels Nav 1.8 (Homo sapiens, UniProt Q9Y5Y9); assay: Automated whole-cell voltage-clamp (ScreenPatch 384P) sodium current block, Nav 1.8; assay type: cell-based; settings: CHO cells stably expressing human Nav 1.8; holding -100 mV, inactivation step -40 mV for 8 seconds, test step 10 mV (TP1A); exposure at least five minutes, room temperature; mean where tested in two or more assays; read-out: Nav1.8 IC50
T1 construct: expressed in transfected cells
Method: (§1) Biological assays were performed on Chinese hamster ovary (CHO) cells that express human sodium channels Nav 1.8 or Nav 1.7 in a stable manner.
(§2) The experimental protocol voltage-clamp using the whole cell configuration was established on the automated ScreenPatch® 384P platform (SP384PE, Nanion Technologies, Livingston, NJ) and the results were recorded with a Nanion 384-well Patch Clamp chip (NPC) (Nanion Technologies, Livingston, NJ).
(§3) Compounds of Formula Ia and Formula Ib were diluted in eight concentrations in the extracellular solution composed of saline solution, buffered with HEPES (mM): NaCl, 137; KCl, 4; CaCl2, 3,8; MgCl2, 1; HEPES, 10; Glucose, 10; pH 7.4. The […], 50; CsF, 90; MgCl2, 5; EGTA, 5; HEPES, 10; pH 7.2. The duration of exposure of each compound with cells expressing Nav 1.7 or Nav 1.8 was at least five minutes, and the assays were performed at room temperature.
(§4) The measurements of the sodium currents of Nav 1.8 and Nav 1.7 were obtained using the voltage protocol described below: A holding voltage of -100 mV was established followed by an inactivation voltage step at -40 mV for 8 seconds, followed by a step of -100 mV for 20 ms, followed by a 20 ms step for 10 mV for Nav 1.8 or 0 mV for Nav 1.7 (TP1A) before returning to the holding voltage of -100 mV.
(§5) The protocol was repeated at a frequency of 0.05 Hz and the amplitude of the current was quantified throughout the recording of the TP1A phase. The variation in the amplitude of the peak current was evaluated according to the formula described below, after exposing the cells expressing the channels to each concentration of the different compounds: % Block = (1−(ITP1A,molecule/ITP1A,basal)×100%, [formula] wherein ITP1A,basal and ITP1A,molecule represent the peaks of sodium current input into TP1A before exposure to the compound and in the presence of the compound, respectively.
(§6) Data were obtained by nonlinear regression (nonlinear least squares) with XLfit for Excel (Microsoft, Redmond, WA).
(§7) The compounds were tested in at least one assay to obtain the value of CI50. For compounds that were tested in two or more assays, the results are described as the mean of the CI50 values.

[2] = target: T2, human sodium channels Nav 1.7 (Homo sapiens, UniProt Q15858); assay: Automated whole-cell voltage-clamp (ScreenPatch 384P) sodium current block, Nav 1.7; assay type: cell-based; settings: CHO cells stably expressing human Nav 1.7; holding -100 mV, inactivation step -40 mV for 8 seconds, test step 0 mV (TP1A); exposure at least five minutes, room temperature; mean where tested in two or more assays; read-out: Nav1.7 IC50
T2 construct: expressed in transfected cells
Method: as §1, §2, §3, §4, §5, §6, §7

T1 sequence (Q9Y5Y9 whole entry): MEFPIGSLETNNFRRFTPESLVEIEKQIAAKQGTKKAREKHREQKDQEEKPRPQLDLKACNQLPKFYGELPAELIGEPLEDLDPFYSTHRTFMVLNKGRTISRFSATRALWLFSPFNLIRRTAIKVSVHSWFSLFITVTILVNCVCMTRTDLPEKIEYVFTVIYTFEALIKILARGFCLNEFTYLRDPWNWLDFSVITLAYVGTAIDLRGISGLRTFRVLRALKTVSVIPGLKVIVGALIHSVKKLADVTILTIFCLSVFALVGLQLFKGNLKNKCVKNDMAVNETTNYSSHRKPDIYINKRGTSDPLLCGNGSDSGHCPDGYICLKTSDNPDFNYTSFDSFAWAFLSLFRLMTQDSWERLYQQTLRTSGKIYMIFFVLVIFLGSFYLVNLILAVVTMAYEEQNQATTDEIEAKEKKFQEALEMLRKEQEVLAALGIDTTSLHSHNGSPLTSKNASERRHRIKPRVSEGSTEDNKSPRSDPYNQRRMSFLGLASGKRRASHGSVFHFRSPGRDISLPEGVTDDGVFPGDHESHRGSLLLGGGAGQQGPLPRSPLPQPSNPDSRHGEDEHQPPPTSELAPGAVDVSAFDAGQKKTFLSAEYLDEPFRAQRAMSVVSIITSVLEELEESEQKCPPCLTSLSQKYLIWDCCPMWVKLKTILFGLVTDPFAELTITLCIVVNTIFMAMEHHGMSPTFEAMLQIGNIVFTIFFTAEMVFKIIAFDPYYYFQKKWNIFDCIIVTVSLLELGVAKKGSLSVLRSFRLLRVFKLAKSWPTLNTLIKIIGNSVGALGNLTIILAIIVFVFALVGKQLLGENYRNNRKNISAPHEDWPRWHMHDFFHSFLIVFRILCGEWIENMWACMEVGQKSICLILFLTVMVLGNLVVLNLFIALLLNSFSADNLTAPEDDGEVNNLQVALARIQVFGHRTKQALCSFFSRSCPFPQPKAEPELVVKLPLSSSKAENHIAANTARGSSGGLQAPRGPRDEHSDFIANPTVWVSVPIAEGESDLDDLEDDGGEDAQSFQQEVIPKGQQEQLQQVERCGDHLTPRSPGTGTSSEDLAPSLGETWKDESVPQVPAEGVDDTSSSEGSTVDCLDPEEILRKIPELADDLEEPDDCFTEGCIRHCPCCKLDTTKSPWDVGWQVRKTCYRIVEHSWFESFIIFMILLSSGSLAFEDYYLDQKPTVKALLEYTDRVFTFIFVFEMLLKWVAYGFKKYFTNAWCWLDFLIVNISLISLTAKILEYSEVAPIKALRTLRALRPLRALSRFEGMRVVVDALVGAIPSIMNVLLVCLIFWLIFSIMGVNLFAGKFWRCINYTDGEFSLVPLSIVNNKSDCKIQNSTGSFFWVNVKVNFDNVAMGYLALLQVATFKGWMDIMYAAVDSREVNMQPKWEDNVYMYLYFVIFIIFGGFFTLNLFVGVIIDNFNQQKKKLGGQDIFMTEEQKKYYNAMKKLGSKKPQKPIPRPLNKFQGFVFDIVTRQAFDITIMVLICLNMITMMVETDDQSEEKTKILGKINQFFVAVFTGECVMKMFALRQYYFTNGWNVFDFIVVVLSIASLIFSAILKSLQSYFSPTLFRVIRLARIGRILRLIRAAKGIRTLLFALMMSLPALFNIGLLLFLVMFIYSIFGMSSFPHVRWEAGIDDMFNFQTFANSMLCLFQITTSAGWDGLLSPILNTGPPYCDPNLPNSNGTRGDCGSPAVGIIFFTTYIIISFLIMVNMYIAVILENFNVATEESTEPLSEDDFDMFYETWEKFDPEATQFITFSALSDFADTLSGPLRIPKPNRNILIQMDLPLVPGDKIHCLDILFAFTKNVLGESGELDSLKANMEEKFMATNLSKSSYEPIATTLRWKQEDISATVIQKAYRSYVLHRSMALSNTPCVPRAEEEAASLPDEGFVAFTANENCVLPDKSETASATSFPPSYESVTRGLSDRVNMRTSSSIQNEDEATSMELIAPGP
T2 sequence (Q15858 whole entry): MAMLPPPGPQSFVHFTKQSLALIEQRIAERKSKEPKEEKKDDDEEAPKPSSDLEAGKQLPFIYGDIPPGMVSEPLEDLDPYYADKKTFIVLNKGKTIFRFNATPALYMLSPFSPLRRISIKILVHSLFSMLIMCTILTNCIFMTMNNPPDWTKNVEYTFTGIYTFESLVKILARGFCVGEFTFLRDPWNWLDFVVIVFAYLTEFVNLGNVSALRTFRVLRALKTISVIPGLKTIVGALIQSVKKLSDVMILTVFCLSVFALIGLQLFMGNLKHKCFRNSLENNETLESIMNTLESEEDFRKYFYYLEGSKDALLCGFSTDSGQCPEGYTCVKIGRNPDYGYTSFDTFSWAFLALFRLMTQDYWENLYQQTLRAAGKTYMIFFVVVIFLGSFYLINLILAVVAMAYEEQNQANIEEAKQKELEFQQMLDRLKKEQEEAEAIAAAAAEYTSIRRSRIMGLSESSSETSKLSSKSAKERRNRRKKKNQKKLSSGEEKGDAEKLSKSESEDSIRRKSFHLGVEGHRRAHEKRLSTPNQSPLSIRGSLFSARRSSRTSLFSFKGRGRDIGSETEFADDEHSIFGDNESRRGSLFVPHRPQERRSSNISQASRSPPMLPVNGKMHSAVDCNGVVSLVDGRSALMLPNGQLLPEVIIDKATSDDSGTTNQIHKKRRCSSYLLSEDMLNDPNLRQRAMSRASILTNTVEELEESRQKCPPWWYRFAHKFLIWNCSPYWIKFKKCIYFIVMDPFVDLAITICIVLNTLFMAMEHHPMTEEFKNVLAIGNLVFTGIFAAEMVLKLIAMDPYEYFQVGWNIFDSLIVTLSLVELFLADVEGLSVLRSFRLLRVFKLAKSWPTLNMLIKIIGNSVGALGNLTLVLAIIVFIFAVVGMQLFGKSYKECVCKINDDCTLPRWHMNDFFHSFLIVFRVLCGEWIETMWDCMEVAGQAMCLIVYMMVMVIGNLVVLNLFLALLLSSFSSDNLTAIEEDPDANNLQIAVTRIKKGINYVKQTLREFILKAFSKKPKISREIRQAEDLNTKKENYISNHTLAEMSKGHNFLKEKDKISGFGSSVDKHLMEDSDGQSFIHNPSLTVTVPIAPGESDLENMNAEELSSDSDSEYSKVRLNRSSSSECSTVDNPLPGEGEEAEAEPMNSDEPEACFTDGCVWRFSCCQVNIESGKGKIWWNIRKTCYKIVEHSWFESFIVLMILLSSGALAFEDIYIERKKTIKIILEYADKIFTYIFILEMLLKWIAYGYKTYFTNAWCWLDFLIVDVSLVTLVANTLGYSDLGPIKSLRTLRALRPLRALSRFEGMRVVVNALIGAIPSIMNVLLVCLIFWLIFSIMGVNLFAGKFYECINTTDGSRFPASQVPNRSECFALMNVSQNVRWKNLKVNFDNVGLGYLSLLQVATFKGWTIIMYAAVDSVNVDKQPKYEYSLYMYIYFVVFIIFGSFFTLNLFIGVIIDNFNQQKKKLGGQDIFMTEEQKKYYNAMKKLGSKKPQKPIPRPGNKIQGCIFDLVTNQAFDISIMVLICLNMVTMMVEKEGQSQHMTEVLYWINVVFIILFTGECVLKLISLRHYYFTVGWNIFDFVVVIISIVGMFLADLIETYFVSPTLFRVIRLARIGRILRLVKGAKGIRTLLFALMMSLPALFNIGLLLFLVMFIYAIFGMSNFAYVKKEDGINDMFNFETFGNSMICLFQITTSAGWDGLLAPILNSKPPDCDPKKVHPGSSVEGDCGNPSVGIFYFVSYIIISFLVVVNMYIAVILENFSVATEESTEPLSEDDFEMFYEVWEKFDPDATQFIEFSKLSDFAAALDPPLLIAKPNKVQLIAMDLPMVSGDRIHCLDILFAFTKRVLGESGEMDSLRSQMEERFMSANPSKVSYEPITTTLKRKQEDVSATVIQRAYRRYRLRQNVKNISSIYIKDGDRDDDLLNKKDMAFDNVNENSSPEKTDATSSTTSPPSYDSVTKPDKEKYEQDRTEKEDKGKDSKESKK

Q: With `CCOc1ccc(-c2cncc(C(=O)NCCc3cccc(OC)c3)n2)cc1` [compound 5] as the molecule, how does the IC50 [1] read?
A: The IC50 was under 500 nM.

Q: And the IC50 [2]?
A: The IC50 was under 500 nM.

Q: How did the IC50 [1] turn out when `COc1cc(OC)cc([C@H](O)CNC(=O)c2cncc(-c3ccc(OC(F)F)cc3)n2)c1` [compound 54] was run?
A: Its IC50 is under 500 nM.

Q: And the IC50 [2]?
A: Its IC50 is over 1000 nM.

Q: Which results are given for `CCOc1ccc(-c2cncc(C(=O)Nc3cc4c(OC)ccc(F)c4[nH]3)n2)cc1` [compound 77]?
A: IC50 [1]: > 1000 nM; IC50 [2]: > 1000 nM

Q: `COc1cnc(F)c(CCNC(=O)c2cncc(-c3ccc(C(C)O)nc3)n2)c1` (stereo not drawn) [compound 58] was tested. Which IC50 [1] did it give?
A: Its IC50 is over 1000 nM.

Q: What about the IC50 [2] of the same molecule?
A: The IC50 was over 1000 nM.

Q: `CCOc1ccc(-c2cncc(C(=O)NCc3ccc4ccc(OC)cn34)n2)cn1` [compound 80] was tested. Which IC50 [1] did it give?
A: The IC50 was under 500 nM.

Q: And the IC50 [2]?
A: The IC50 was over 1000 nM.

Q: With `[2H]C([2H])([2H])Oc1cc(OC([2H])([2H])[2H])cc([C@H](O)CNC(=O)c2cncc(-c3ccc(OC([2H])([2H])[2H])nc3)n2)c1` [compound 92] as the molecule, how does the IC50 [1] read?
A: The IC50 was over 1000 nM.

Q: And the IC50 [2]?
A: Its IC50 is over 1000 nM.

Q: Which IC50 [1] does the source give for `CCOc1ccc(-c2cncc(C(=O)Nc3nc4c(F)ccc(OC)c4o3)n2)cn1` [compound 65] here?
A: The IC50 was over 1000 nM.

Q: And the IC50 [2]?
A: Its IC50 is over 1000 nM.

Q: Which IC50 [1] does the source give for `CCOc1ccc(-c2cnnc(C(=O)NCCc3cc(OC)cnc3F)c2)cn1` [compound 112] here?
A: Its IC50 is over 1000 nM.

Q: What about the IC50 [2] of the same molecule?
A: The IC50 was over 1000 nM.

Q: Which results are given for `CCOc1ccc(-c2cncc(C(=O)Nc3cn4c(OC)ccc(F)c4n3)n2)cn1` [compound 68]?
A: IC50 [1]: > 1000 nM; IC50 [2]: > 1000 nM

Q: For `CCOc1ccc(-c2cncc(C(=O)N[C@H]3Cc4c(F)ccc(OC)c4C3)n2)cn1` [compound 82], which IC50 [1] is on record?
A: The IC50 was 500 to 1000 nM.

Q: What about the IC50 [2] of the same molecule?
A: The IC50 was over 1000 nM.

Q: For `CCOc1ccc(-c2cncc(C(=O)N[C@@H]3Cc4c(F)ccc(OC)c4C3)n2)cn1` [compound 81], which IC50 [1] is on record?
A: The IC50 was under 500 nM.

Q: What about the IC50 [2] of the same molecule?
A: Its IC50 is over 1000 nM.

Q: With `CCOc1ccc(-c2cncc(C(=O)Nc3nc4c(F)ncc(OC)c4o3)n2)cn1` [compound 67] as the molecule, how does the IC50 [1] read?
A: Its IC50 is over 1000 nM.

Q: And the IC50 [2]?
A: The IC50 was over 1000 nM.

Q: For `COc1cc(CCNC(=O)c2cncc(-c3ccc(OC(F)F)nc3)n2)cc(OC)c1` [compound 29], which IC50 [1] is on record?
A: Its IC50 is under 500 nM.

Q: What about the IC50 [2] of the same molecule?
A: Its IC50 is 500 to 1000 nM.

Q: How did the IC50 [1] turn out when `[2H]C([2H])([2H])Oc1cc(OC([2H])([2H])[2H])cc([C@H](O)CNC(=O)c2cncc(-c3ccc(OC(F)F)nc3)n2)c1` [compound 91] was run?
A: The IC50 was under 500 nM.

Q: And the IC50 [2]?
A: The IC50 was over 1000 nM.

Q: Which results are given for `COc1ccc(-c2cncc(C(=O)NCCc3cc(OC)cc(OC)c3)n2)cc1` [compound 49]?
A: IC50 [1]: > 1000 nM; IC50 [2]: > 1000 nM

Q: Which IC50 [1] does the source give for `CCOc1ccc(-c2cncc(C(=O)NC[C@H](C)c3cc(OC)cc(OC)c3)n2)cc1` [compound 22] here?
A: The IC50 was under 500 nM.

Q: What about the IC50 [2] of the same molecule?
A: The IC50 was over 1000 nM.

Q: For `CCOc1ccc(-c2nccc(C(=O)NCCc3cc(OC)cnc3F)n2)cn1` [compound 110], which IC50 [1] is on record?
A: The IC50 was over 1000 nM.

Q: What about the IC50 [2] of the same molecule?
A: Its IC50 is over 1000 nM.

Q: How did the IC50 [1] turn out when `CCOc1ccc(-c2cncc(C(=O)NCCc3cc(OC)cc(OC)c3)n2)c(F)c1` [compound 3] was run?
A: The IC50 was under 500 nM.

Q: And the IC50 [2]?
A: Its IC50 is over 1000 nM.

Q: How did the IC50 [1] turn out when `CCOc1ccc(-c2cncc(C(=O)Nc3cc4cccc(OC)c4[nH]3)n2)cn1` [compound 72] was run?
A: Its IC50 is over 1000 nM.

Q: And the IC50 [2]?
A: Its IC50 is over 1000 nM.

Q: What does the source list for `CCOc1ccc(-c2cncc(C(=O)NCCc3cc(OC)cc(C(C)O)c3)n2)cc1` (stereo not drawn) [compound 12]?
A: IC50 [1]: < 500 nM; IC50 [2]: > 1000 nM

Q: Which results are given for `CCOc1ccc(-c2cncc(C(=O)NCc3cnc4ccc(OC)cn34)n2)cn1` [compound 86]?
A: IC50 [1]: > 1000 nM; IC50 [2]: > 1000 nM

Q: Which results are given for `COc1cc(CCNC(=O)c2cncc(-c3ccc(OC(C)C)nc3)n2)cc(OC)c1` [compound 28]?
A: IC50 [1]: < 500 nM; IC50 [2]: 500 to 1000 nM

Q: Which IC50 [1] does the source give for `[2H]C([2H])([2H])Oc1ccc(-c2cncc(C(=O)NCCc3cc(OC)cnc3F)n2)cn1` [compound 90] here?
A: The IC50 was over 1000 nM.

Q: What about the IC50 [2] of the same molecule?
A: The IC50 was over 1000 nM.

Q: Which results are given for `CCOc1ccc(-c2cncc(C(=O)Nc3nc4c(F)ccc(OC)c4[nH]3)n2)cn1` [compound 64]?
A: IC50 [1]: > 1000 nM; IC50 [2]: > 1000 nM

Q: `CCOc1ccc(-c2cncc(C(=O)NCc3ncc4ccc(OC)cn34)n2)cn1` [compound 85] was tested. Which IC50 [1] did it give?
A: Its IC50 is over 1000 nM.

Q: What about the IC50 [2] of the same molecule?
A: Its IC50 is over 1000 nM.

Q: How did the IC50 [1] turn out when `[2H]C([2H])([2H])Oc1ccc(-c2cncc(C(=O)NC[C@@H](O)c3cc(OC)cc(OC)c3)n2)cc1` [compound 93] was run?
A: The IC50 was under 500 nM.

Q: And the IC50 [2]?
A: The IC50 was over 1000 nM.

Q: With `CCOc1ccc(-c2cncc(C(=O)NC[C@@H](O)c3cc(OC)cc(OC)c3)n2)cc1` [compound 25] as the molecule, how does the IC50 [1] read?
A: Its IC50 is over 1000 nM.

Q: What about the IC50 [2] of the same molecule?
A: The IC50 was over 1000 nM.

Q: What does the source list for `CCOc1ccc(-c2cncc(C(=O)NCCc3cc(OC)ccc3F)n2)cc1` [compound 17]?
A: IC50 [1]: < 500 nM; IC50 [2]: 500 to 1000 nM

Q: `COc1cnc(F)c(CCNC(=O)c2cncc(-c3ccc(OC(F)F)nc3)n2)c1` [compound 51] was tested. Which IC50 [1] did it give?
A: The IC50 was over 1000 nM.

Q: What about the IC50 [2] of the same molecule?
A: Its IC50 is over 1000 nM.

Q: `CCOc1cc(C)c(-c2cncc(C(=O)NCCc3cc(OC)cc(OC)c3)n2)cn1` [compound 30] was tested. Which IC50 [1] did it give?
A: Its IC50 is over 1000 nM.

Q: And the IC50 [2]?
A: The IC50 was over 1000 nM.

Q: Which IC50 [1] does the source give for `[2H]C([2H])([2H])Oc1cc(OC([2H])([2H])[2H])cc([C@H](O)CNC(=O)c2cncc(-c3ccc(OC(F)F)cc3)n2)c1` [compound 96] here?
A: The IC50 was under 500 nM.

Q: What about the IC50 [2] of the same molecule?
A: The IC50 was over 1000 nM.

Q: Which IC50 [1] does the source give for `CCOc1ccc(-c2cncc(C(=O)N[C@H]3CCc4c(OC)ccc(F)c4C3)n2)cn1` [compound 78] here?
A: Its IC50 is under 500 nM.

Q: And the IC50 [2]?
A: The IC50 was over 1000 nM.

Q: Which results are given for `CCOc1ccc(-c2cncc(C(=O)Nc3cn4c(F)ccc(OC)c4n3)n2)cn1` [compound 63]?
A: IC50 [1]: > 1000 nM; IC50 [2]: > 1000 nM

Q: For `CCOc1ccc(-c2cncc(C(=O)NCCc3cccc(C(C)O)c3)n2)cn1` (stereo not drawn) [compound 41], which IC50 [1] is on record?
A: Its IC50 is over 1000 nM.

Q: And the IC50 [2]?
A: The IC50 was over 1000 nM.

Q: `CCOc1ccc(-c2cncc(C(=O)NC[C@H](O)c3cc(OC)cc(OC)c3)n2)cc1` [compound 24] was tested. Which IC50 [1] did it give?
A: The IC50 was over 1000 nM.

Q: What about the IC50 [2] of the same molecule?
A: Its IC50 is over 1000 nM.

Q: Which results are given for `COc1ccc(-c2cncc(C(=O)NC[C@@H](O)c3cc(OC)cc(OC)c3)n2)cc1` [compound 55]?
A: IC50 [1]: < 500 nM; IC50 [2]: > 1000 nM
